# Values joined by “and” are separate entries in the source; they are usually repeats but may differ in a detail not shown here. Identical values can stand only once. Like-named read-outs stand apart in the source and are kept apart here.
# Columns and labels:
# [1] = Human biomonitoring: urinary excretion of PAH metabolites (GC–MS/MS, creatinine-normalised) in firefighting instructors before and after live fire training; details: for Median increase from baseline (sample 2) to peak excretion: peak: sample 5 for 1-PYR, sample 4 otherwise; for concentration at 6 h: Concentration in urine, sampling 6, corresponding to end of shift
# Protocol: All study participants (n = 6) were male firefighting instructors from Germany. […] Before the start of the study, all subjects declared that they were non-smokers. Tattoo bearers were excluded before the start of the study as tattoo ink can be a potential source of polycyclic aromatic hydrocarbons. The authors declare that this research was conducted in accordance with the relevant regulations, including the Declaration of Helsinki. All subjects gave written informed consent after being informed about the study by the investigator.
# Exposure to combustion products took place in several training sessions that simulated live fire conditions by burning a defined number of uncoated chipboards in an overseas container. The container was located in a hall with exhaust air purification. […] In addition, all subjects wore long-sleeved undergarments under their turnout gear. Only laundered clothing and cleaned equipment (e.g. helmets, masks) were used. The donning and doffing of clothing and protective equipment took place only in a smoke-free, well-ventilated area. Immediately after taking off the firefighters' gloves after training, the participants put on nitrile gloves for further undressing. After removing the helmet, flash hood and SCBA face shield, the participants put on particle filtering half masks (FFP3) to remove contaminated turnout jackets and trousers. After a break for rehydration and cool down still wearing their undergarments, the participants went to shower. […] The interval between two consecutive training sessions for each subject was at least six days. […] In this way, each subject was biomonitored at each of the five training sessions. All additional (unscheduled) urinations between the predefined times were also collected in separate containers and pooled afterwards with the next scheduled sample. […] A total of 270 samples were to be collected using this procedure for all participants and five training sessions of each individual. Subjects completed a questionnaire for each sampling period to account for possible pre-exposure or concurrent exposure to PAHs from sources other than the fire simulation unit, such as occupational exposure to combustion products, exposure to tobacco smoke (active/passive) and barbecue activities, and consumption of smoked or charbroiled foods.
# In brief, the analytes were extracted by liquid–liquid extraction with n-hexane after enzymatic hydrolysis of the urine samples with ß-glucuronidase/arylsulfatase (isolated from helix pomatia) and derivatised by silylation with N-trimethylsilyl-N-methyl trifluoroacetamide afterwards. […] All standards were obtained from LGC-Standards, Wesel, Germany.
# DHN in urine was determined referring to a method described in detail by Klotz et al.[29]. […] External calibration with internal standardisation by an isotopically labelled analogue of the target compound was done by analysis of pool urine samples spiked with the glucuronides of DHN and D6-1,2-dihydroxynaphthalene (internal standard) before enzymatic hydrolysis. Both standards are not commercially available and were obtained as a gift from the Institute of Occupational, Social and Environmental Medicine at the University of Erlangen-Nuremberg (Germany). A detailed description of the synthesis of the compounds is given by[26]. […] Up to now, there is no external quality assessment scheme available for DHN.
# Urinary creatinine was analysed in the Institute of Clinical Chemistry and Laboratory Medicine of University Medical Centre of the Johannes Gutenberg University Mainz using a photometrical assay based on the method of[30].
# [2] = set-up: method as in PMID 32464238; details: by scheduled sampling time; cited from earlier work
# [3] = upper margin of internal exposure typically found in smokers; cited from earlier work
# [4] = Time to peak and initial elimination half-life of the urinary biomarkers (first-order model, linear mixed effects); type: in vivo, human; details: for half-life: male, human, in vivo, initial elimination half-life after peak excretion, urine, read-out: Estimated half-life, mean (converted); for Time to peak, median / Time to peak, range: urinary excretion, time after onset of exposure
# Excerpt: The initial half-life of each biomarker was estimated using statistical methods described previously[6],[32]. In short, we estimated the first-order elimination rate constant λ based on the model in Eq. (1):1 C=C0+B·e^λ·t+∈
# Here, C is the creatinine-adjusted concentration in urine after the uptake phase, C0 is the baseline concentration before training, B is the difference from peak to baseline concentration, t is the time since peak concentration, and ϵ is the error term. […] Using package nlme[33] for the statistical environment R[34],[35], the model was fitted as a linear mixed effects model for the log concentration difference to baseline ln(C–C0) as the outcome. The model was fitted simultaneously for all data and included fixed effects for biomarker, time since peak, and their interaction term. It used random slopes for time since peak and random intercepts for […]. Errors were assumed to be autocorrelated according to an AR(1) process.
# [5] = cited from earlier work
# [6] = 58 urine samples before onset of exposure, not creatinine-normalised
# [7] = sampling 1, morning urine on training day before exposure (mean −4.2 h from start of exposure), n = 30
# [8] = sampling 1, morning urine on training day before exposure, n = 30
# [9] = sampling 2, before training (mean −0.4 h), n = 28
# [10] = sampling 2, before training, n = 28
# [11] = sampling 3, at the end of the training session (mean 2.0 h after start of exposure), n = 26
# [12] = sampling 3, at the end of the training session, n = 26
# [13] = sampling 4, 1 h after the end of training (mean 3.0 h after start of exposure), n = 25
# [14] = sampling 4, 1 h after the end of training, n = 25
# [15] = sampling 5, 3 h after the end of training (mean 5.2 h after start of exposure), n = 22
# [16] = sampling 5, 3 h after the end of training, n = 22
# [17] = sampling 6, 6 h after the end of training (mean 8.1 h after start of exposure), n = 23
# [18] = sampling 6, 6 h after the end of training, n = 23
# [19] = sampling 7, 9 h after the end of training (mean […] after start of exposure), n = 27
# [20] = sampling 7, 9 h after the end of training, n = 27
# [21] = sampling 8, right before bedtime (mean 12.7 h after start of exposure), n = 27
# [22] = sampling 8, right before bedtime, n = 27
# [23] = sampling 9, morning urine the next day, 18 h after training (mean 20.1 h after start of exposure), n = 29
# [24] = sampling 9, morning urine the next day, n = 29
structure (smiles),measurement,setting,value
"Oc1cccc2ccccc12 [1-NAP, 1-hydroxynaphthalene]","Increase in concentration from before exposure up to the maximum of excretion, factor",[1]; in vivo,40
same,Median increase in morning urine after exposure (sampling 9) vs. before (sampling 1),[1]; in vivo,3.9 fold
same,Median increase from baseline (sample 2) to peak excretion,[1],36 fold
same,Time of peak excretion after the end of the training session,[2],1 h
same,95th percentile of urinary concentration in smokers,[3],32.8 µg/g crea.
"Oc1ccc2ccccc2c1O [DHN, 1,2-dihydroxynaphthalene]","Concentration in urine, median",[1]; [6],2.89 µg/L
same,"Concentration in urine, range",[1]; [6],0.6 to 19.4 µg/L
same,"Baseline concentration in urine, total range","[1]; before training, samplings 1 and 2 together",0.9–10.2 µg/g crea. and 0.87–10.19 µg/g crea.
same,"Urinary peak concentration, median (range)","[1]; firefighters after live fire training, sampling 4, n = 6, Germany",246.7 (18.2–1084.2) µg/l
same,Median increase in morning urine after exposure (sampling 9) vs. before (sampling 1),"[1]; male, human, in vivo, 18 h",12.9 fold
same,concentration at 6 h,"[1]; male, human, in vivo, median",71.3 ng/mL
same,concentration at 6 h,"[1]; male, human, in vivo, range",16.6 to 674 ng/mL
same,Median increase from baseline (sample 2) to peak excretion,[1],41 fold
same,Individual maximum concentration in urine,"[1]; post exposure, sampling 4",380.4 µg/g crea.
same,"Concentration in urine, median",[1]; [7],2.23 µg/g creatinine
same,"Concentration in urine, IQR",[1]; [8],1.43–4.18 µg/g creatinine
same,"Concentration in urine, range",[1]; [8],0.87–10.19 µg/g creatinine
same,"Concentration in urine, median",[1]; [9],3.3 µg/g creatinine and 3.32 µg/g creatinine
same,"Concentration in urine, IQR",[1]; [10],2.03–4.80 µg/g creatinine
same,"Concentration in urine, range",[1]; [10],1.41–9.04 µg/g creatinine
same,"Concentration in urine, median",[1]; [11],31.60 µg/g creatinine
same,"Concentration in urine, IQR",[1]; [12],25.79–52.81 µg/g creatinine
same,"Concentration in urine, range",[1]; [12],10.68–166.80 µg/g creatinine
same,"Concentration in urine, median",[1]; [13],134.2 µg/g creatinine and 134.15 µg/g creatinine
same,"Concentration in urine, IQR",[1]; [14],92.94–164.89 µg/g creatinine
same,"Concentration in urine, range",[1]; [14],43.38–380.43 µg/g creatinine
same,"Concentration in urine, median",[1]; [15],131.46 µg/g creatinine
same,"Concentration in urine, IQR",[1]; [16],104.83–207.75 µg/g creatinine
same,"Concentration in urine, range",[1]; [16],78.66–375.77 µg/g creatinine
same,"Concentration in urine, median",[1]; [17],86.01 µg/g creatinine
same,"Concentration in urine, IQR",[1]; [18],67.60–137.94 µg/g creatinine
same,"Concentration in urine, range",[1]; [18],46.21–284.21 µg/g creatinine
same,"Concentration in urine, median",[1]; [19],51.58 µg/g creatinine
same,"Concentration in urine, IQR",[1]; [20],40.81–76.67 µg/g creatinine
same,"Concentration in urine, range",[1]; [20],21.95–159.57 µg/g creatinine
same,"Concentration in urine, median",[1]; [21],46.02 µg/g creatinine
same,"Concentration in urine, IQR",[1]; [22],30.70–63.89 µg/g creatinine
same,"Concentration in urine, range",[1]; [22],19.82–154.82 µg/g creatinine
same,"Concentration in urine, median",[1]; [23],27.1 µg/g creatinine and 27.08 µg/g creatinine
same,"Concentration in urine, IQR",[1]; [24],20.03–40.28 µg/g creatinine
same,"Concentration in urine, range",[1]; [24],15.69–139.47 µg/g creatinine
same,Time of peak excretion after the end of the training session,[4]; by scheduled sampling time,1 h
same,Time required to reach pre exposure levels again,"[4]; from median maximum 134.15 µg/g crea., about 5 half-lives, monophasic elimination assumed",approximately 33 h
same,half-life,[4],6.6 h
same,"Time to peak, median",[4],3.3 h
same,"Time to peak, range",[4],2.5 to 19.0 h
same,"Urinary level, median",[5]; 20 non-smoking subjects,4.6 µg/L
same,"Urinary concentration, GM (GSD)","[5]; coke oven workers, n = 28, China",452 (2.28) µg/l
same,"Urinary concentration, geometric mean","[5]; control group, n = 22 office and hospital workers including three smokers, China",38.8 µg/L
same,"Urinary concentration, median",[5]; n = 9 smokers,17.1 µg/L
same,"Urinary concentration, range",[5]; n = 9 smokers,1.9 to 62 µg/L
same,"Urinary concentration, median (range)","[5]; wood impregnation workers, n = 9, Germany",88.3 (10.8–1497) µg/l
same,"Urinary concentration, median (range)","[5]; workers at converter infeed, n = 26, Germany",945.4 (22.0–1902.6) µg/l
same,"Urinary concentration, median (range)","[5]; workers in the abrasive industry, post-shift Monday, n = 10, Germany","3944 (114–42,066) µg/l"
same,"Urinary concentration, median (range)","[5]; workers in the abrasive industry, post-shift Thursday, n = 10, Germany","11,162 (337–51,809) µg/l"
"Oc1ccc2ccc3cccc4ccc1c2c34 [1-PYR, 1-hydroxypyrene]",Median increase in morning urine after exposure (sampling 9) vs. before (sampling 1),"[1]; male, human, in vivo, 18 h",2.8 fold
same,Median increase from baseline (sample 2) to peak excretion,[1],7.9 fold
same,Maximum excretion pre exposure,[1]; pre exposure samplings,0.22 µg/g creatinine
same,"Concentration in urine, median",[1]; [7],0.06 µg/g creatinine
same,"Concentration in urine, IQR",[1]; [8],0.04–0.08 µg/g creatinine
same,"Concentration in urine, range",[1]; [8],0.03–0.15 µg/g creatinine
same,"Concentration in urine, median",[1]; [9],0.05 µg/g creatinine
same,"Concentration in urine, IQR",[1]; [10],0.03–0.06 µg/g creatinine
same,"Concentration in urine, median",[1]; [11],0.06 µg/g creatinine
same,"Concentration in urine, IQR",[1]; [12],0.04–0.08 µg/g creatinine
same,"Concentration in urine, median",[1]; [13],0.20 µg/g creatinine
same,"Concentration in urine, IQR",[1]; [14],0.14–0.31 µg/g creatinine
same,"Concentration in urine, range",[1]; [14],0.06–1.61 µg/g creatinine
same,"Concentration in urine, median",[1]; [15],0.40 µg/g creatinine
same,"Concentration in urine, IQR",[1]; [16],0.21–0.59 µg/g creatinine
same,"Concentration in urine, range",[1]; [16],0.16–1.88 µg/g creatinine
same,"Concentration in urine, median",[1]; [17],0.29 µg/g creatinine
same,"Concentration in urine, IQR",[1]; [18],0.19–0.42 µg/g creatinine
same,"Concentration in urine, range",[1]; [18],0.10–1.93 µg/g creatinine
same,"Concentration in urine, median",[1]; [19],0.25 µg/g creatinine
same,"Concentration in urine, IQR",[1]; [20],0.16–0.30 µg/g creatinine
same,"Concentration in urine, range",[1]; [20],0.08–1.56 µg/g creatinine
same,"Concentration in urine, median",[1]; [21],0.21 µg/g creatinine
same,"Concentration in urine, IQR",[1]; [22],0.12–0.33 µg/g creatinine
same,"Concentration in urine, range",[1]; [22],0.06–1.06 µg/g creatinine
same,"Concentration in urine, median",[1]; [23],0.17 µg/g creatinine
same,"Concentration in urine, IQR",[1]; [24],0.10–0.25 µg/g creatinine
same,"Concentration in urine, range",[1]; [24],0.05–0.63 µg/g creatinine
same,half-life,[4],7.7 h
same,"Time to peak, median",[4],5.3 h
same,"Time to peak, range",[4],2.5 to 13.9 h

# Source: PMC11219744, “Renal excretion of 1,2-dihydroxynaphthalene (DHN) in firefighting instructors after exposure to polycyclic aromatic hydrocarbons (PAHs) during live fire training” (Scientific Reports, 2024)
